Measurements: patent US20090036448A1, “PYRIMIDINE DERIVATIVES AND METHODS OF TREATMENT RELATED TO THE USE THEREOF” (TAISHO PHARMECUTICAL CO., LTD., priority 2004, published 2009)
Counter-ions that a name gives are not always drawn.

Biological target: MCH receptor (Homo sapiens, UniProt Q99705)
Assay: FLIPR/FDSS6000 functional assay: intracellular Ca2+ changes evoked by MCH
Type: cell-based
Settings: class by percent of control at 10^−7 M or by IC50; antagonist activity, 50 nM of MCH; read-out: class
How it was run: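 Cells expressing a constitutively active, non-endogenous MCH receptor were loaded with 4 μM Fluo-4-AM for 1 hr at 37 °C. They were then preincubated 30 min with compound before MCH addition, using 50 nM MCH for antagonist testing. [Ca2+]i transients were monitored at Ex 488/Em 530 nm for 290 s by FLIPR or FDSS.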

IC50 [nM] | SMILES
> 200 | Cc1nc(N[C@H]2CC[C@@H](NC(=O)c3ccc(F)c(Cl)c3)CC2)c(F)c(N(C)C)n1 [Example 181, 3-Chloro-N-(cis-4-{[6-(dimethylamino)-5-fluoro-2-methylpyrimidin-4-yl]amino}cyclohexyl)-4-fluorobenzamide hydrochloride]
> 200 | Cc1nc(N[C@H]2CC[C@@H](NS(=O)(=O)c3ccc(F)c(Cl)c3)CC2)cc(N(C)C)n1 [Example 182, 3-Chloro-N-(cis-4-{[6-(dimethylamino)-2-methylpyrimidin-4-yl]amino}cyclohexyl)-4-fluorobenzenesulfonamide hydrochloride]
> 200 | Cc1nc(N[C@H]2CC[C@@H](NC(=S)Nc3ccc(F)c(Cl)c3)CC2)cc(N(C)C)n1 [Example 183, N-(3-Chloro-4-fluorophenyl)-N′-(cis-4-{[6-(dimethylamino)-2-methylpyrimidin-4-yl]amino}cyclohexyl)thiourea hydrochloride]
> 200 | COc1cc(N[C@H]2CC[C@@H](NC(=O)c3ccc(F)c(Cl)c3)CC2)nc(OC)n1 [Example 185, 3-Chloro-N-{cis-4-[(2,6-dimethoxypyrimidin-4-yl)amino]cyclohexyl}-4-fluorobenzamide hydrochloride]
> 200 | O=C(N[C@H]1CC[C@@H](Nc2ncnc3[nH]ccc23)CC1)c1ccc(F)c(Cl)c1 [Example 186, 3-Chloro-4-fluoro-N-[cis-4-(7H-pyrrolo[2,3-d]pyrimidin-4-ylamino)cyclohexyl]benzamide hydrochloride]
50 to 200 | Cn1ccc2c(N[C@H]3CC[C@@H](NC(=O)c4ccc(F)c(Cl)c4)CC3)ncnc21 [Example 187, 3-Chloro-4-fluoro-N-{cis-4-[(7-methyl-7H-pyrrolo[2,3-d]pyrimidin-4-yl)amino]cyclohexyl}-benzamide hydrochloride]
50 to 200 | Cn1ccc2c(N[C@H]3CC[C@@H](NC(=O)c4cc(F)c(F)c(F)c4)CC3)ncnc21 [Example 188, 3,4,5-Trifluoro-N-{cis-4-[(7-methyl-7H-pyrrolo[2,3-d]pyrimidin-4-yl)amino]cyclohexyl}benzamide hydrochloride]
> 200 | CCn1ccc2c(N[C@H]3CC[C@@H](NC(=O)c4ccc(F)c(Cl)c4)CC3)ncnc21 [Example 189, 3-Chloro-N-{cis-4-[(7-ethyl-7H-pyrrolo[2,3-d]pyrimidin-4-yl)amino]cyclohexyl}-4-fluorobenzamide hydrochloride]
> 200 | Cn1cnc2c(N[C@H]3CC[C@@H](NC(=O)c4ccc(F)c(Cl)c4)CC3)ncnc21 [Example 190, 3-Chloro-4-fluoro-N-{cis-4-[(9-methyl-9H-purin-6-yl)amino]cyclohexyl}benzamide hydrochloride]
< 50 | Cc1nc(N[C@H]2CC[C@@H](C(=O)Nc3ccc(F)c(Cl)c3)CC2)cc(N(C)C)n1 [Example 191, cis-N-(3-Chloro-4-fluorophenyl)-4-{[6-(dimethylamino)-2-methylpyrimidin-4-yl]amino}cyclohexanecarboxamide hydrochloride]
50 to 200 | Cc1nc(N[C@H]2CC[C@@H](C(=O)Nc3ccc(F)c(F)c3)CC2)cc(N(C)C)n1 [Example 192, cis-N-(3,4-Difluorophenyl)-4-{[6-(dimethylamino)-2-methylpyrimidin-4-yl]amino}cyclohexanecarboxamide hydrochloride]
< 50 | Cc1nc(N[C@H]2CC[C@@H](C(=O)Nc3cc(F)c(F)c(F)c3)CC2)cc(N(C)C)n1 [Example 193, cis-4-{[6-(Dimethylamino)-2-methylpyrimidin-4-yl]amino}-N-(3,4,5-trifluorophenyl)-cyclohexanecarboxamide hydrochloride]

SMILES | IC50 [nM]
Cc1nc(N[C@H]2CC[C@@H](NC(=O)Oc3ccc(Br)cc3)CC2)cc(N(C)C)n1 [Example 184, 4-Bromophenyl (cis-4-{[6-(dimethylamino)-2-methylpyrimidin-4-yl]amino}cyclohexyl)carbamate] | > 200
